Assay results reported in PubChem BioAssay AID1259407 (Chemical Carcinogenesis Research Information System (CCRIS), 2018).
The source made the active and inactive calls. The rule behind the calls is not given here.

System: CCRIS mutagenicity, Ames/micronucleus/aberration tests
Assay: CCRIS mutagenicity studies

Measured: mutagenic call

O=C(S)c1ccccc1
inactive: Test System: AMES SALMONELLA TYPHIMURIUM, Strain/Indicator: TA98, Metabolic Activation: NONE, Method: PREINCUBATION inactive; negative | Test System: AMES SALMONELLA TYPHIMURIUM, Strain/Indicator: TA98, Metabolic Activation: RAT LIVER S-9, PHENOBARBITAL AND BETA-NAPHTHOFLAVONE, Method: PREINCUBATION inactive; negative | Test System: AMES SALMONELLA TYPHIMURIUM, Strain/Indicator: TA100, Metabolic Activation: NONE, Method: PREINCUBATION inactive; negative | Test System: AMES SALMONELLA TYPHIMURIUM, Strain/Indicator: TA100, Metabolic Activation: RAT LIVER S-9, PHENOBARBITAL AND BETA-NAPHTHOFLAVONE, Method: PREINCUBATION inactive; negative | Test System: AMES SALMONELLA TYPHIMURIUM, Strain/Indicator: TA102, Metabolic Activation: NONE, Method: PREINCUBATION inactive; negative | Test System: AMES SALMONELLA TYPHIMURIUM, Strain/Indicator: TA102, Metabolic Activation: RAT LIVER S-9, PHENOBARBITAL AND BETA-NAPHTHOFLAVONE, Method: PREINCUBATION inactive; negative | Test System: AMES SALMONELLA TYPHIMURIUM, Strain/Indicator: TA104, Metabolic Activation: NONE, Method: PREINCUBATION inactive; negative | Test System: AMES SALMONELLA TYPHIMURIUM, Strain/Indicator: TA104, Metabolic Activation: RAT LIVER S-9, PHENOBARBITAL AND BETA-NAPHTHOFLAVONE, Method: PREINCUBATION inactive; negative | Test System: AMES SALMONELLA TYPHIMURIUM, Strain/Indicator: TA1535, Metabolic Activation: NONE, Method: PREINCUBATION inactive; negative | Test System: AMES SALMONELLA TYPHIMURIUM, Strain/Indicator: TA1535, Metabolic Activation: RAT LIVER S-9, PHENOBARBITAL AND BETA-NAPHTHOFLAVONE, Method: PREINCUBATION inactive; negative | Test System: AMES SALMONELLA TYPHIMURIUM, Strain/Indicator: TA1537, Metabolic Activation: NONE, Method: PREINCUBATION inactive; negative | Test System: AMES SALMONELLA TYPHIMURIUM, Strain/Indicator: TA1537, Metabolic Activation: RAT LIVER S-9, PHENOBARBITAL AND BETA-NAPHTHOFLAVONE, Method: PREINCUBATION inactive; negative | Test System: E.COLI, Strain/Indicator: WP2UVRA/PKM101, Metabolic Activation: NONE, Method: PREINCUBATION inactive; negative | Test System: E.COLI, Strain/Indicator: WP2UVRA/PKM101, Metabolic Activation: RAT LIVER S-9, PHENOBARBITAL AND BETA-NAPHTHOFLAVONE, Method: PREINCUBATION inactive; negative | Test System: E.COLI, Strain/Indicator: WP2UVRA, Metabolic Activation: NONE, Method: PREINCUBATION inactive; negative | Test System: E.COLI, Strain/Indicator: WP2UVRA, Metabolic Activation: RAT LIVER S-9, PHENOBARBITAL AND BETA-NAPHTHOFLAVONE, Method: PREINCUBATION inactive; negative

NC[C@H]1CCCN1.O=C([O-])C1(C(=O)[O-])CCC1.[Pt+2]
inactive: Test System: AMES SALMONELLA TYPHIMURIUM, Strain/Indicator: TA98, Metabolic Activation: NONE, Method: STANDARD PLATE inactive; negative | Test System: AMES SALMONELLA TYPHIMURIUM, Strain/Indicator: TA98, Metabolic Activation: RAT, LIVER, S-9, PHENOBARBITAL AND 5,6-BENZOFLAVONE, Method: STANDARD PLATE inactive; negative | Test System: AMES SALMONELLA TYPHIMURIUM, Strain/Indicator: TA100, Metabolic Activation: NONE, Method: STANDARD PLATE inactive; negative | Test System: AMES SALMONELLA TYPHIMURIUM, Strain/Indicator: TA100, Metabolic Activation: RAT, LIVER, S-9, PHENOBARBITAL AND 5,6-BENZOFLAVONE, Method: STANDARD PLATE inactive; negative | Test System: AMES SALMONELLA TYPHIMURIUM, Strain/Indicator: TA1535, Metabolic Activation: NONE, Method: STANDARD PLATE inactive; negative | Test System: AMES SALMONELLA TYPHIMURIUM, Strain/Indicator: TA1535, Metabolic Activation: RAT, LIVER, S-9, PHENOBARBITAL AND 5,6-BENZOFLAVONE, Method: STANDARD PLATE inactive; negative | Test System: AMES SALMONELLA TYPHIMURIUM, Strain/Indicator: TA1537, Metabolic Activation: NONE, Method: STANDARD PLATE inactive; negative | Test System: AMES SALMONELLA TYPHIMURIUM, Strain/Indicator: TA1537, Metabolic Activation: RAT, LIVER, S-9, PHENOBARBITAL AND 5,6-BENZOFLAVONE, Method: STANDARD PLATE inactive; negative | Test System: E. COLI, Strain/Indicator: WP2 UVRA, Metabolic Activation: NONE, Method: STANDARD PLATE inactive; negative | Test System: E. COLI, Strain/Indicator: WP2 UVRA, Metabolic Activation: RAT, LIVER, S-9, PHENOBARBITAL AND 5,6-BENZOFLAVONE, Method: STANDARD PLATE inactive; negative

O=C(O)CN(CC(=O)O)C1C[C@H]1N(CC(=O)O)CC(=O)O (stereo partly drawn)
active: Test System: CHINESE HAMSTER V-79, Strain/Indicator: V-79/OUABAIN, Metabolic Activation: NONE, Method: STANDARD PLATE active; positive | Test System: UDS RODENT CELLS, Strain/Indicator: THY INCORP (NON-S-PHASE), Metabolic Activation: NONE, Method: AUTORADIOGRAPHY active; positive
